Results on 34 compounds are retold here after patent US7923461B2, “TNF-α production inhibitors” (Santen Pharmaceutical Co., Ltd., priority 2000, dated 2011).

Turning to `CCCCCN(CCC12CC3CC(CC(C3)C1)C2)C(=O)NCCc1ccc(O)cc1`, the melting point was 96.3 to 99.4 °C. Take `Cl.O=C(NCc1ccncc1)N(CCC1CCCCC1)Cc1cccs1`: the melting point was 161.8 to 164.4 °C. In the case of `Cl.O=C(NCCCc1ccncc1)N(CCC12CC3CC(CC(C3)C1)C2)CCC12CC3CC(CC(C3)C1)C2`, the melting point was 120 to 122.5 °C. The result for `CCCCCN(CCC12CC3CC(CC(C3)C1)C2)C(=O)CNCCc1ccncc1.Cl.Cl` reads 133.7 to 137 °C. In turn, `CC(C)CCN(CCC(C)C)C(=O)NCCCc1ccncc1.Cl` registered a melting point of 120.5 to 131.7 °C. With `Cl.Cl.NN(CCC12CC3CC(CC(C3)C1)C2)C(=O)NCCCc1ccncc1`, the melting point was ~ 100 °C.

Compound `Cl.O=C1CCN(CCC2CCCCC2)C(=O)N1Cc1ccncc1` showed a melting point of 64 to 74.5 °C. `Cl.O=C1CCN(CCCc2ccncc2)C(=O)N1CCC12CC3CC(CC(C3)C1)C2`: the melting point is 170 °C. The result for `O=C(NCCCc1ccncc1)N1CCc2ccccc2C1` [Compound No. 1-5, N-[3-(4-Pyridyl)propyl]-1,2,3,4-tetrahydroisoquinoline-2-carboxamide] reads 76 to 79 °C; that for `O=C(NCCCc1ccncc1)N1CCOCC1` [Compound No. 1-6, N-[3-(4-Pyridyl)propyl]-4-morpholinecarboxamide], 94 to 98 °C; that for `CN(C)CCN(CCC12CC3CC(CC(C3)C1)C2)C(=O)NCCCc1ccncc1` [Compound No. 1-15, 1-[2-(1-Adamantyl)ethyl]-1-[2-(dimethylamino)ethyl]-3-[3-(4-pyridyl)propyl]urea], 104 to 106.5 °C.

As to `CCCN(CCC12CC3CC(CC(C3)C1)C2)C(=O)NCCCc1ccncc1` [Compound No. 1-16, 1-[2-(1-Adamantyl)ethyl]-1-propyl-3-[3-(4-pyridyl)propyl]urea], the melting point lay within 99 to 103 °C. The result for `C#CCN(CCC12CC3CC(CC(C3)C1)C2)C(=O)NCCCc1ccncc1` [Compound No. 1-17, 1-[2-(1-Adamantyl)ethyl]-1-(2-propynyl)-3-[3-(4-pyridyl)propyl]urea] reads 152 to 154 °C; that for `O=C(NCCCc1ccncc1)N(CCC12CC3CC(CC(C3)C1)C2)C1CC1` [Compound No. 1-19, 1-[2-(1-Adamantyl)ethyl]-1-cyclopropyl-3-[3-(4-pyridyl)propyl]urea], 108 to 115.5 °C; that for `O=C(NCCCc1ccncc1)N(CCC12CC3CC(CC(C3)C1)C2)CC1CCCC1` [Compound No. 1-21, 1-[2-(1-Adamantyl)ethyl]-1-cyclopentylmethyl-3-[3-(4-pyridyl)propyl]urea], 155 to 158 °C.

Take `C=CCN(CCC12CC3CC(CC(C3)C1)C2)C(=O)NCCCc1ccncc1` [Compound No. 1-23, 1-[2-(1-Adamantyl)ethyl]-1-allyl-3-[3-(4-pyridyl)propyl]urea]: the melting point lay within 99 to 102 °C.

`CCCCCCN(CCC12CC3CC(CC(C3)C1)C2)C(=O)NCCCc1ccncc1` [Compound No. 1-29, 1-[2-(1-Adamantyl)ethyl]-1-hexyl-3-[3-(4-pyridyl)propyl]urea] came in with a melting point of 119.5 to 121.5 °C. Compound `C=C(C)CN(CCC12CC3CC(CC(C3)C1)C2)C(=O)NCCCc1ccncc1` [Compound No. 1-33, 1-[2-(1-Adamantyl)ethyl]-1-(2-methyl-2-propenyl)-3-[3-(4-pyridyl)propyl]urea] displayed a melting point of 108 to 109 °C.

Regarding `CN(CCC12CC3CC(CC(C3)C1)C2)C(=O)NCCCc1ccncc1` [Compound No. 1-40, 1-[2-(1-Adamantyl)ethyl]-1-methyl-3-[3-(4-pyridyl)propyl]urea], the melting point was in the range of 99 to 109 °C. The result for `CCN(CCC12CC3CC(CC(C3)C1)C2)C(=O)NCCCc1ccncc1` [Compound No. 1-41, 1-[2-(1-Adamantyl)ethyl]-1-ethyl-3-[3-(4-pyridyl)propyl]urea] reads 106 to 115 °C. Take `CCCCCN(CCC1CCCCC1)C(=O)NCc1ccncc1` [Compound No. 1-52, 1-(2-Cyclohexylethyl)-1-pentyl-3-(4-pyridyl)methylurea]: the melting point was in the range of 64.7 to 65.8 °C.

In turn, `CCCCN(CCC12CC3CC(CC(C3)C1)C2)C(=O)NCCCc1ccncc1` [Compound No. 1-57, 1-[2-(1-Adamantyl)ethyl]-1-butyl-3-[3-(4-pyridyl)propyl]urea] registered a melting point of 109.5 to 118 °C.

For `O=C(N(CCCc1ccncc1)Cc1ccccc1)N(CCCc1ccccc1)C1CCCCC1` [Compound No. 1-60, 1-Cyclohexyl(phenyl)methyl-1-(3-phenylpropyl)-3-[3-(4-pyridyl)propyl]urea], the melting point was 107 to 112 °C. The result for `O=C(NCCCc1ccncc1)N(C1CCCCC1)C1CCCCC1` [Compound No. 1-61, 1,1-Dicyclohexyl-3-[3-(4-pyridyl)propyl]urea] reads 143 to 145.5 °C; that for `CC(C)(C)OC(=O)CCN(CCC12CC3CC(CC(C3)C1)C2)C(=O)NCCCc1ccncc1` [Compound No. 1-69, 1-[2-(1-Adamantyl)ethyl]-1-[2-(t-butoxycarbonyl)ethyl]-3-[3-(4-pyridyl)propyl]urea], 124.5 to 127 °C. The result for `CCCCCN(CCC12CC3CC(CC(C3)C1)C2)C(=O)NCc1ccccn1` [Compound No. 1-72, 1-[2-(1-Adamantyl)ethyl]-1-pentyl-3-(2-pyridyl)methylurea] reads 87.5 to 92 °C; that for `CCCCCN(CCC12CC3CC(CC(C3)C1)C2)C(=O)NCc1cccnc1` [Compound No. 1-73, 1-[2-(1-Adamantyl)ethyl]-1-pentyl-3-(3-pyridyl)methylurea], 88.5 to 101.5 °C. `CCCCCN(CCC12CC3CC(CC(C3)C1)C2)C(=O)NCc1ccncc1` [Compound No. 1-74, 1-[2-(1-Adamantyl)ethyl]-1-pentyl-3-(4-pyridyl)methylurea] displayed a melting point of 96.5 to 108 °C. For the compound `CCCCCN(CCC12CC3CC(CC(C3)C1)C2)C(=O)NCCc1ccccn1` [Compound No. 1-75, 1-[2-(1-Adamantyl)ethyl]-1-pentyl-3-[2-(2-pyridyl)ethyl]urea], the melting point is 80 to 100 °C.

For the compound `CCCCCN(CCC12CC3CC(CC(C3)C1)C2)C(=O)NCCc1cccnc1` [Compound No. 1-76, 1-[2-(1-Adamantyl)ethyl]-1-pentyl-3-[2-(3-pyridyl)ethyl]urea], the melting point is 112.5 to 114.5 °C. The result for `CCCCCN(CCC12CC3CC(CC(C3)C1)C2)C(=O)NCCc1ccncc1` [Compound No. 1-80, 1-[2-(1-Adamantyl)ethyl]-1-pentyl-3-[2-(4-pyridyl)ethyl]urea] reads 107 to 118 °C; that for `CCCCCN(CCC12CC3CC(CC(C3)C1)C2)C(=O)NCCCc1ccccn1` [Compound No. 1-83, 1-[2-(1-Adamantyl)ethyl]-1-pentyl-3-[3-(2-pyridyl)propyl]urea], 84.4 to 85.7 °C; that for `CCCCCN(CCC12CC3CC(CC(C3)C1)C2)C(=O)NCCCCc1ccncc1` [Compound No. 1-87, 1-[2-(1-Adamantyl)ethyl]-1-pentyl-3-[4-(4-pyridyl)butyl]urea], 74.1 to 78.1 °C. Compound `CCCCCN(CCC12CC3CC(CC(C3)C1)C2)C(=O)NCCCc1ccnc2ccccc12` [Compound No. 1-91, 1-[2-(1-Adamantyl)ethyl]-1-pentyl-3-[3-(4-quinolyl)propyl]urea] registered a melting point of 80.2 to 102 °C.

What is called melting point is the temperature of the solid-liquid transition.
